System: mouse embryonic stem cells (mESCs)
Experiment: CAP-C with G5 dendrimers on mESC samples treated with transcription elongation inhibitors
Type: cell-based
Conditions: for peaks originally called in the control sample that remained: second time point; for contacts in 10 kb resolution contact matrix: mESC; for contact probability between distance-scaled bins 2-7, loop and non-loop domains: versus G5-control
Excerpt: The inventors then diffuse dendrimers into the cell nucleus and expose these cells to UV irradiation (FIG. 1A). The formaldehyde fixing is then reversed, and DNA-bound proteins are removed with protease to expose all DNA motifs, the dendrimer-DNA complexes are subsequently purified with ethanol precipitation. The purified dendrimer-DNA complexes are then subjected to MboI restriction digestion and end-filling with biotin-bearing DNA, followed by ligation under ultra-diluted solution, biotin capture and high-throughput sequencing (FIG. 1A). Dendrimers with a defined size were used for each CAP-C experiment.
Inhibition of transcription reduces supercoiling and leads to global loss of chromatin contacts. Chromatin topology highly associates with supercoiling, and supercoiling domains have been proposed and identified. […] Motivated by a relationship between transcription-induced supercoiling and domain organization, the inventors next examined whether transcription inhibition affects chromatin architecture. The inventors explored two different transcription elongation inhibitors, flavopiridol and α-amanitin. Reduced levels and rates of supercoiling have been observed upon transcription inhibition. Thus, the inventors performed time-series CAP-C experiments using G5 dendrimers to crosslink mESC samples treated with 2 μM flavopiridol for 1 h and 6 h, as well as samples treated with 4 μg/ml of α-amanitin for 6 h and 12 h, respectively.
The signals of these peaks were, however, weakly attenuated (FIG. 5A). Because these inhibitor-treated and G5-control samples are low-resolution contact maps, the inventors applied Aggregate Peak Analysis (APA) of the peaks called in the deep sequenced CAP-C dataset. […] The inventors plotted the mean contact maps of 103-263 loop-domains (median length: 170 Kb) shared between the control and inhibitor-treated samples by rescaling them into 10 bins (i.e. contact domains in G5-control overlapping loops that are shared between control and inhibitor-treated samples). […] The inventors also quantified these maps into a contact probability vs distance-scaled bins line-plot for all loop domains, non-loop domains and randomly permutated domains. […] Increasing contact frequencies identified at corners of inhibitor-treated loop-domains (bins 8-10) indicate the presence as well as attenuation of peaks from G5-control (FIG. 5E). This is in stark contrast to the absence of such an increase in non-loop domains and randomly permutated domain boundaries.

Row | SMILES | APA scores versus control (6 h and 12 h treated samples) | peaks originally called in the control sample that remained (12 hr treatment) | contacts in 10 kb resolution contact matrix (4 μg/ml α-amanitin for 6 h and 12 h) | contact probability between distance-scaled bins 2-7, loop and non-loop domains | peaks originally called in the control sample that remained (6 hr treatment) | loops (APA and meta-analysis) (flavopiridol-treated samples) | contacts in 10 kb resolution contact matrix (2 μM flavopiridol for 1 h and 6 h) | contacts over 1 Mb (relative contact frequency vs distance) (transcription inhibitor-treated vs control)
1 | CC[C@H](C)[C@@H]1NC(=O)CNC(=O)[C@@H]2Cc3c([nH]c4cc(O)ccc34)[S+]([O-])C[C@@H](NC(=O)CNC1=O)C(=O)N[C@@H](CC(N)=O)C(=O)N1C[C@H](O)C[C@H]1C(=O)N[C@@H]([C@@H](C)[C@@H](O)CO)C(=O)N2 (stereo in doubt) [α-amanitin] | greater | more than half | profound decrease in contacts | general decrease | – | – | – | –
2 | CN1CC[C@H](c2c(O)cc(O)c3c(=O)cc(-c4ccccc4Cl)oc23)[C@H](O)C1 [flavopiridol] | – | – | – | same trends | more than half | attenuated but preserved | profound decrease in contacts | slightly strong depletion

Source: US12359242B2, “Chemical platform assisted proximity capture (CAP-C)” (The University of Chicago, priority 2018, dated 2025)
